Results: patent US9908877B2, “Imidazo[1,5-a]pyridinium ion fluorophores, and methods of making and using the same” (Indiana University Research and Technology Corporation, priority 2013, dated 2018)

Key:
Assay type in all cases: physicochemical
[1] = Ultraviolet-visible light spectrum (maximum absorbance wavelength)
Procedure: Method for Obtaining an Ultraviolet-Visible Light Spectrum
Ultraviolet-visible (UV-Vis) Light spectra are obtained and recorded on an Agilent 8453 spectrophotometer using ChemStation software (Agilent Technologies, Inc., Santa Clara, Calif.).
(§1) The compounds were analyzed at 298° K according to the Method for Obtaining Ultraviolet-Visible Light Spectrum (30 μM acetonitrile) to obtain the maximum absorbance wavelength (λabs,max), Method for Obtaining Fluorescence Emission Spectrum (30 μM acetonitrile) to obtain the maximum emission wavelength (λem,max) and Method for Determining Quantum Yield (ΦF) (30 μM acetonitrile) at the concentration, in the solvent, and with the counter ion indicated in Table 1. The compounds included hydrogen at each R group that is not otherwise specified.
(§2) Compounds 6, 7, 9, 11-14 and 21 were analyzed according to: the Method for Obtaining Ultraviolet-Visible Light Spectrum to obtain the maximum absorbance wavelength (λabs,max), the Method for Obtaining Fluorescence Emission Spectrum to obtain the maximum emission wavelength (λem,max), and the Method for Determining Quantum Yield (ΦF) in the solvent and with the counter ion indicated in Table 3.

[2] = Fluorescence emission spectrum (maximum emission wavelength)
Procedure: Method for Obtaining a Fluorescence Emission Spectrum
Fluorescence emission spectra are obtained and recorded on a QM-4-CW Spectrofluorometer using FeliX32 software (Photon Technology International, Inc., Birmingham, N.J.).
as §1, §2

[3] = Fluorescence quantum yield, integrating sphere
Procedure: Method for Determining Quantum Yield
Quantum yield is determined using an integrating sphere attached to a QM-4-CW Spectrofluorometer using FeliX32 software (Photon Technology International).
as §1, §2

[4] = Fluorescence response to trifluoroacetic acid / DBU in acetonitrile; conditions: for emission intensity at 400 nm: 30 μM in acetonitrile + 50 μL trifluoroacetic acid; for emission intensity at 600 nm / emission wavelength: 30 μM in neat acetonitrile; for emission wavelength λem,max: acetonitrile + 50 μL trifluoroacetic acid; for fluorescence emission in neat acetonitrile: acetonitrile without acid
Procedure: A 30 μM solution of Compound 6 in acetonitrile was prepared by adding 99 μL of a stock solution of 3.04 mM Compound 6 in methanol to 10 mL of acetonitrile. An initial fluorescence emission spectrum of the solution was obtained and is illustrated by curve (i) in FIG. 1A.
A series of approximately 13.8 μL aliquots of trifluoroacetic acid (TFA) were then added to the 30 μM solution of Compound 6 until a total concentration of 60.0 mM of TFA was present in the solution. (The total amount of TFA present in the solution corresponded to 2000 equivalents of acid per equivalent of Compound 6.) The fluorescence emission spectrum of the resulting solution was obtained and is illustrated by curve (ii) in FIG. 1A.
A base, i.e., 1,8-diazabicyclo[5.4.0]undec-7-ene (DBU), was then added to the solution to neutralize the acid until a concentration of 90 mM DBU was obtained. The fluorescence emission spectrum of the resulting solution was obtained and is illustrated by curve (iii) in FIG. 1A. The fluorescence emission intensity at λem,max=565 nm increased as the amount of base present in the system increased and the fluorescence emission intensity at λem,max=405 nm decreased as the amount of base present in the system increased, which reflected Compound 6's ratiometric response to the changing base concentration in acetonitrile.
A 30 μM solution of Compound 7 in acetonitrile was prepared by adding 84 μL of a stock solution of 3.58 mM Compound 7 in methanol to 10 mL of acetonitrile. The emission spectrum of the solution was then obtained and is illustrated by curve (i) in FIG. 1B.
A series of approximately 13.8 μL aliquots of TFA were then added to the 30 μM solution of Compound 7 until a total concentration of 60.0 mM TFA was present in the solution (which corresponded to 2000 equivalents of acid per equivalent of Compound 7). The fluorescence emission spectrum of the solution was obtained and is illustrated by curve (ii) in FIG. 1B.
After the 60 mM TFA concentration was achieved, DBU was gradually added to the solution until a total concentration of 90 mM DBU was present in the solution. The fluorescence spectrum of the solution was obtained and is illustrated by curve (iii) in FIG. 1B.
An aliquot of 50 μL of trifluoroacetic acid was then added to the system, and the fluorescence emission spectrum was obtained and is illustrated by the curved line with a peak at 360 nm in FIG. 6A.
Compound 10 was placed in neat acetonitrile and its emission spectrum was monitored as trifluoroacetic acid was added to the acetonitrile in incremental amounts to achieve a solution that included an acid concentration ranging from 0 to 0.2 M. After each acid addition the sample was excited with radiation of a wavelength 340 nm, and its fluorescence emission spectrum was monitored. The results are illustrated in FIG. 7A.
The solution of Compound 10 in acetonitrile was titrated with trifluoroacetic acid (TFA). […] The first stage, which occurred with the addition of the initial aliquots of TFA, was a slight increase intensity at 580 nm, as illustrated in FIG. 7A. As more TFA was added to the system, a second transition occurred in which the emission at 580 nm began to decrease and as the emission at 400 nm began to increase, as illustrated in FIG. 7B. A plot of the emission intensity at 580 nm versus pH and at 400 nm versus pH is illustrated in FIG. 7C.
Compounds 10, 11, and 12 were then each individually added, at a concentration of 30 μM, to acetonitrile and the emission spectrum of each was monitored. The compounds emitted at 600 nm with an intensity of about 7.57×10^5 arbitrary units (a.u.) in neat acetonitrile. […] FIG. 8B illustrates the emission properties of Compound 12.

[5] = Fluorescence response to pH in buffered water; conditions: for fluorescence emission in water at pH 7.5: water pH 7.5
Procedure: Stock solutions of each compound (having a concentration of from 1-5 mM) were prepared by dissolving the corresponding salts of the compounds in methanol or 1V, N-dimethylformamide, and then diluting the same with acetonitrile or buffered water having a pH of from 2.5 to 7.5 derived from 0.2 M […] and 0.1 M citric acid, to achieve a sample solution having a compound concentration of 30.0 μM.
The emission spectrum for each sample was obtained. The results are illustrated by the plot in FIG. 2A.
The emission spectrum for each sample was obtained. […] The results are illustrated in the plot of FIG. 2B.
The fluorescence emission spectrum of Compound 8 in water having a pH of 2.5 was also obtained and is illustrated by the curved line with a peak at 360 nm in FIG. 5B.
Compounds 10, 11, and 12 were each individually added, at a concentration of 30 μM, to water having a pH=7.5 and the emission spectra of each were obtained. […] As the pH was decreased from 7.5 to 2.5 in 0.5 pH unit increments, fluorescence emission at 600 nm remained relatively nonexistent and the intensity of the fluorescence emission at 400 nm increased in correlation to the decrease in pH. FIG. 8A illustrates the emission properties of Compound 12.

[6] = Fluorescence response to hydrophobic environment (acetonitrile in water, SDS)
Procedure: Compound 12 was placed in water and the intensity of its fluorescence emission at 600 nm was monitored as the concentration of acetonitrile was increased from 0 volume to volume (v/v) % to 100 v/v % in increments of 10 v/v %.
Compound 12 was added to an aqueous solution of sodium dodecylsulfate (SDS) and monitored for fluorescence emission at 600 nm.

[7] = pKa from fluorescence intensity versus pH; conditions: non-linear regression of fluorescence intensity versus pH, buffered water pH 2.5 to 7.5
Procedure: Method for Determining pKa
A pKa value is determined by plotting fluorescence intensity (Imax) at emission maxima against pH and fitting the result to the non-linear expression in equation (1) (i.e., eq.(1)). In eq (1), a and b are the molar coefficient of the acid (HA) and base (A^−) form, respectively, and c is the combined overall concentration of the acid and base form. i.e., c=[HA]+[A^−].

[8] = Fluorescence response to pH in buffered water; conditions: 10 μM in water, pH = 7.5
[9] = 30 μM acetonitrile, 298 K, Table 1

λabs, max Abs ([1]; H2O pH = 7.5, 30 μM) [nm] | λabs, max Abs ([1]; MeCN + 50 μL TFA, 30 μM) [nm] | λabs, max Abs ([1]; MeCN, 30 μM) [nm] | λem, max Em ([2]; MeCN + 50 μL TFA, 30 μM) [nm] | λem, max Em ([2]; MeCN, 30 μM) [nm] | […]F (quantum yield) ([3]; H2O pH = 7.5, 30 μM) [%] | […]F (quantum yield) ([3]; MeCN + 50 μL TFA, 30 μM) [%] | […]F (quantum yield) ([3]; MeCN, 30 μM) [%] | emission intensity at 400 nm [4] | emission intensity at 600 nm [4] | emission wavelength [4] [nm] | emission wavelength λem,max [4] [nm] | fluorescence emission in water at pH 7.5 [5] | fluorescence emission in neat acetonitrile [4] | λabs, max Abs ([1]; H2O pH = 2.5, 30 μM) [nm] | λem, max Em ([2]; H2O pH = 2.5, 30 μM) [nm] | […]F (quantum yield) ([3]; H2O pH = 2.5, 30 μM) [%] | SMILES | fluorescence λem ([5]; water, pH 2.5) | also measured
340 | 340 | 340 | 400 | 600 | 0 | 57 | 30 | 1.34×10^6 a.u. | about 7.57×10^5 arbitrary units (a.u.) | 600 | 400 | essentially no fluorescence emission | – | – | – | – | CCN(CC)c1ccc(-n2cc3cccc(-c4cn(-c5ccc(C)cc5)nn4)[n+]3c2)cc1.[Cl-] [Compound 12, 2-(4-(diethylamino)phenyl)-5-(1-(p-tolyl)-1H-1,2,3-triazol-4-yl)-2H-imidazo[1,5-a]pyridin-4-ium chloride] | – | λabs, max Abs ([1]; H2O pH = 2.2, 30 μM): 340 nm; λem, max Em ([2]; H2O pH = 2.2, 30 μM): 400 nm; […]F (quantum yield) ([3]; H2O pH = 2.2, 30 μM): 66%; fluorescence intensity at 600 nm ([6]; 100 v/v % acetonitrile): 6.48×10^5 a.u.; fluorescence intensity at 600 nm ([6]; water, 0 v/v % acetonitrile): 7.81×10^3 a.u.
– | – | – | – | – | – | – | – | – | – | – | 360 | fluorescence quenching | fluorescence quenching | – | – | – | CC(C)c1cc(N(C)C)cc(C(C)C)c1-n1cc2cccc[n+]2c1 [Compound 8, 2-(4-(dimethylamino)-2,6-diisopropylphenyl)-2H-imidazo[1,5-a]pyridin-4-ium tetraphenylborate] | 360 nm | –
340 | – | 340 | – | – | 0 | – | 0 | – | – | – | – | essentially non-emissive | essentially non-emissive | 340 | 450 | 42 | CCN(CC)c1ccc(-n2c[n+]3ccccc3c2-c2ccc(OC)cc2)cc1.[Cl-] [Compound 7, 2-(4-(diethylamino)phenyl)-1-(4-methoxyphenyl)-2H-imidazo[1,5-a]pyridin-4-ium chloride] | – | λabs, max Abs ([1]; MeCN + 13.8 uL TFA, 30 μM): 340 nm; λem, max Em ([2]; MeCN + 13.8 uL TFA, 30 μM): 450 nm; ΦF (quantum yield) ([3]; 30 μM in acetonitrile with 60.0 mM TFA): 42%; quantum yield (ΦF) ([3]; 30 μM in acetonitrile, no acid, excited at 340 nm): 0.06%; […]F (quantum yield) ([3]; MeCN + 13.8 uL TFA, 30 μM): 57%; pKa [7]: 4.4; increase in cyan fluorescent intensity ([4]; 30 μM in acetonitrile after addition of 60.0 mM TFA): approximately 700 fold; λem,max (fluorescence emission) ([4]; 30 μM in acetonitrile in the presence of trifluoroacetic acid (60.0 mM TFA)): 450 nm; fluorescence intensity after base ([4]; acetonitrile, 60 mM TFA then 90 mM DBU): returned to zero; λem,max of the emission that increases as pH decreases ([5]; buffered water, 298 K, pH from 7.5 to 2.5): 450 nm
– | – | – | – | – | – | – | – | 1.34×10^6 a.u. | about 7.57×10^5 arbitrary units (a.u.) | 600 | 400 | essentially no fluorescence emission | – | – | – | – | CCN(CC)c1ccc(-n2cc(-c3cccc4cn(-c5ccc(N(C)C)cc5)c[n+]34)nn2)cc1.[Cl-] [Compound 10, 5-(1-(4-(diethylamino)phenyl)-1H-1,2,3-triazol-4-yl)-2-(4-(dimethylamino)phenyl)-2H-imidazo[1,5-a]pyridin-4-ium chloride] | – | emission response to stepwise addition of TFA ([4]; acetonitrile, TFA 0 to 0.2 M, excited at 340 nm, emission at 580 nm and 400 nm): two stage transitions
340 | 340 | 400 | 405 | 605 | 0 | 55 | 35 | 1.34×10^6 a.u. | about 7.57×10^5 arbitrary units (a.u.) | 600 | 400 | essentially no fluorescence emission | – | 340 | 400 | 29 | Cc1ccc(-n2cc(-c3cccc4cn(-c5ccc(N(C)C)cc5)c[n+]34)nn2)cc1.[Cl-] [Compound 11, 2-(4-(dimethylamino)phenyl)-5-(1-(p-tolyl)-1H-1,2,3-triazol-4-yl)-2H-imidazo[1,5-a]pyridin-4-ium chloride] | – | –
– | – | – | – | – | – | – | – | – | – | – | – | – | – | – | – | – | CCN(CC)c1ccc(-n2cc3cccc[n+]3c2)cc1 [Compound 2, 2-(4-(diethylamino)phenyl)-2H-imidazo[1,5-a]pyridin-4-ium hexafluorophosphate] | 360-375 nm | λabs, max Abs [1, 9]: 330 nm; λem, max Em [2, 9]: 515 nm; ΦF (quantum yield) [3, 9]: 30%; fluorescence λem ([5]; Example 13B: pH decreased to 2.5): 360-375 nm; emission maxima λem ([5]; Example 13B: printed 'neat acetonitrile having a pH of 7.5' / 'pH=7.5 in water'): 550 nm; emission maxima λem [8]: 550 nm
